Experimental data as given in publication doi:10.1101/2025.08.06.668955, “High-Affinity, Structure-Validated and Selective Macrocyclic Peptide Tools for Chemical Biology Studies of Huntingtin” (bioRxiv, 2025).
Where a SMILES comes first, the peptide text is derived from it. Bridges are numbered along the chain shown (N, C = ends).

Test system: HTT
Experiment: HL2 macrocycle pulldown from isogenic neuronal progenitor cells (NPCs), LC-MS/MS
Type: binding, human
Details: isogenic NPC lines Q30/Q19, Q45/Q19 and Q81/Q27
From the text: We extended our analysis to isogenic neuronal progenitor cells (NPCs), which more closely resemble the neuronal populations affected in HD, both functionally and in terms of gene expression profiles ([Ooi et al., 2019]). […] Thus, we compared HL2 protein enrichment profiles across isogenic NPC lines harboring non-expanded (Q30/Q19) and expanded CAG repeats (Q45/Q19 and Q81/Q27).
Successful macrocycle-mediated pulldown was first confirmed by western blot in all NPC lines (Supplementary Figure 14a). […] HTT and HAP40 were the only proteins consistently overlapping across all three NPC lines (Supplementary Figure 14b). […]
Cells were harvested by centrifugation at 1,500 rpm for 5 minutes, washed twice with PBS, and snap-frozen. […] Protein concentration was determined by BCA assay (Thermo Fisher Scientific, 23225), yielding approximately 4 mg of protein on average. […]
All sample preparation, LC MS/MS data collection, and MS data searches were carried out at the SPARC BioCentre at The Hospital for Sick Children (Toronto, ON, Canada). […] Samples were analyzed by liquid chromatography tandem mass spectrometry (LC-MS/MS) using an EASY-nanoLC 1200 system with a 1 h analysis and an Orbitrap Fusion™ Lumos™ Tribrid™ Mass Spectrometer (Thermo Fisher Scientific). […]

CC(C)C[C@@H]1NC(=O)[C@H](Cc2ccc(O)cc2)NC(=O)[C@H](CCCNC(=N)N)NC(=O)[C@H](C)NC(=O)[C@H]([C@@H](C)O)NC(=O)[C@H](Cc2ccc(O)cc2)NC(=O)CSC[C@@H](C(N)=O)NC(=O)[C@H](CCCCN)NC(=O)[C@H](Cc2ccc(O)cc2)NC(=O)[C@H](Cc2c[nH]cn2)NC(=O)[C@H](CC(C)C)NC(=O)[C@H]([C@@H](C)O)NC(=O)CNC(=O)[C@H](CC(C)C)NC(=O)[C@H]([C@@H](C)O)NC1=O [HL2] ({CH2CO}-YTARYLTLGTLHYKC-NH2; thioether N-15; C-terminus assumed)
Enrichment of HTT in HL2 pulldown from NPC lines by LC-MS/MS: most abundantly enriched protein across all lines
